Experiments:
[1] = test system: Rabbit Model of Spinal Cord Ischemia; test: Neurologic assessment: hind-limb motor function by modified Tarlov scale; assay type: in vivo, New Zealand White rabbits
Description: Twenty-six male New Zealand White rabbits weighting 2.2 to 3.0 kg were used in this experiment. Spinal cord ischemia was induced by occluding the abdominal aorta with […] for 20 minutes just distal to the renal arteries. Surgical preparation was conducted according to the method described in the literature, Terada H. et. al., J. Thorac. Cardiovasc. Surg. 2001; 122: 979-85. A 24-gauge venous catheter was placed in the marginal ear vein for drug administration. The rabbits were anesthetized with intravenous sodium pentobarbital (25 mg/kg) and allowed to breathe spontaneously. Lidocaine (0.5%) was administered at the site of the skin incision as local anesthesia. The left common carotid artery was cannulated with a 24-gauge catheter for monitoring the arterial pressure. Core body temperature was continuously monitored with a rectal probe and was maintained at 38.5° C. with the aid of heating lamp. The infrarenal abdominal aorta was exposed through a transperitoneal approach. After systemic heparinization (200 U/kg), spinal cord ischemia was induced by occluding the abdominal aorta with […] for 20 minutes just distal to the renal arteries and just above the aortic bifurcation. Then, the […] released, and the flank was closed. […] The rabbits were assigned randomly to 1 of the 4 groups and subjected to the treatment of (1) above in the following manner. The sham group (n=3) underwent the same operation without aortic occlusion. The control group (n=7) received saline (1 ml) intravenously 15 minutes before aortic occlusion. NS-7 (1 mg/kg) was administered intravenously as a bolus dose 15 minutes before aortic occlusion in group A (n=8) or just after releasing the […] onset of reperfusion) in group B (n=8). Hind-limb motor function was scored 24 and 48 hours after the operation by the modified Tarlov scale.

[2] = test system: Rabbit Model of Spinal Cord Ischemia; test: Infarct size of spinal cords by TTC staining; assay type: in vivo, New Zealand White rabbits; conditions: for Infarct size as a percentage of the area of the whole gray matter: mid lumbar, 48 hours after spinal cord ischemia, control 54.7±19.8%
Description: Twenty-six male New Zealand White rabbits weighting 2.2 to 3.0 kg were used in this experiment. Spinal cord ischemia was induced by occluding the abdominal aorta with […] for 20 minutes just distal to the renal arteries. Surgical preparation was conducted according to the method described in the literature, Terada H. et. al., J. Thorac. Cardiovasc. Surg. 2001; 122: 979-85. A 24-gauge venous catheter was placed in the marginal ear vein for drug administration. The rabbits were anesthetized with intravenous sodium pentobarbital (25 mg/kg) and allowed to breathe spontaneously. Lidocaine (0.5%) was administered at the site of the skin incision as local anesthesia. The left common carotid artery was cannulated with a 24-gauge catheter for monitoring the arterial pressure. Core body temperature was continuously monitored with a rectal probe and was maintained at 38.5° C. with the aid of heating lamp. The infrarenal abdominal aorta was exposed through a transperitoneal approach. After systemic heparinization (200 U/kg), spinal cord ischemia was induced by occluding the abdominal aorta with […] for 20 minutes just distal to the renal arteries and just above the aortic bifurcation. Then, the […] released, and the flank was closed. […] The rabbits were assigned randomly to 1 of the 4 groups and subjected to the treatment of (1) above in the following manner. The sham group (n=3) underwent the same operation without aortic occlusion. The control group (n=7) received saline (1 ml) intravenously 15 minutes before aortic occlusion. NS-7 (1 mg/kg) was administered intravenously as a bolus dose 15 minutes before aortic occlusion in group A (n=8) or just after releasing the […] onset of reperfusion) in group B (n=8). All animals were killed by means of a lethal injection of pentobarbital (200 mg/kg) 48 hours after operation. […] The area of infarction was calculated with National Institutes of Health Image software. The infarct size was expressed as a percentage of the area of the whole gray matter. […]

[3] = Group A (n = 8, NS-7 1 mg/kg i.v. 15 min before aortic occlusion), 24 h after operation
[4] = Group A (n = 8, NS-7 1 mg/kg i.v. 15 min before aortic occlusion), 48 h after operation
[5] = Group B (n = 8, NS-7 1 mg/kg i.v. at onset of reperfusion), 24 h after operation
[6] = Group B (n = 8, NS-7 1 mg/kg i.v. at onset of reperfusion), 48 h after operation

Cc1cc(-c2ccc(F)cc2)cc(OCCCCCN2CCCCC2)n1.Cl [NS-7, 4-(4-Fluorophenyl)-2-methyl-6-(5-piperidinopentyloxy)pyridine hydrochloride]
Number of rabbits with Tarlov score 0 [1, 3]: 0 | Number of rabbits with Tarlov score 1 [1, 3]: 0 | Number of rabbits with Tarlov score 2 [1, 3]: 0 | Number of rabbits with Tarlov score 3 [1, 3]: 2 | Number of rabbits with Tarlov score 4 [1, 3]: 3 | Number of rabbits with Tarlov score 5 [1, 3]: 3 | Number of rabbits with Tarlov score 0 [1, 4]: 0 | Number of rabbits with Tarlov score 1 [1, 4]: 0 | Number of rabbits with Tarlov score 2 [1, 4]: 1 | Number of rabbits with Tarlov score 3 [1, 4]: 2 | Number of rabbits with Tarlov score 4 [1, 4]: 4 | Number of rabbits with Tarlov score 5 [1, 4]: 1 | Number of rabbits with Tarlov score 0 [1, 5]: 0 | Number of rabbits with Tarlov score 1 [1, 5]: 0 | Number of rabbits with Tarlov score 2 [1, 5]: 0 | Number of rabbits with Tarlov score 3 [1, 5]: 2 | Number of rabbits with Tarlov score 4 [1, 5]: 1 | Number of rabbits with Tarlov score 5 [1, 5]: 5 | Number of rabbits with Tarlov score 0 [1, 6]: 0 | Number of rabbits with Tarlov score 1 [1, 6]: 0 | Number of rabbits with Tarlov score 2 [1, 6]: 1 | Number of rabbits with Tarlov score 3 [1, 6]: 2 | Number of rabbits with Tarlov score 4 [1, 6]: 1 | Number of rabbits with Tarlov score 5 [1, 6]: 4 | Recovery of motor function in the hind limbs ([1]; group A and B, 24 hours and 48 hours after the operation, P<0.01 vs control): remarkably enhanced | Infarct size as a percentage of the area of the whole gray matter ([2]; NS-7 1 mg/kg i.v. at the onset of reperfusion (group B)): 12.1±12.8% | Infarct size as a percentage of the area of the whole gray matter ([2]; NS-7 1 mg/kg i.v. injected before ischemia (group A)): 14.0±14.3% | Gray matter infarction in TTC-stained sections (FIG. 1) ([2]; NS-7 before ischemia or at the onset of reperfusion, mid lumbar level): Minimal gray matter infarction

Source: patent US20070021451A1, “Method for preventing or treating neurologic damage after spinal cord injury” (HAMAMATSU UNIVERSITY SCHOOL OF MEDICINE, priority 2005, published 2007)
